Patent US11136317B2, “NADPH oxidase 4 inhibitors” (ACTELION PHARMACEUTICALS LTD, priority 2015, dated 2021)

Columns and labels:
human NOX4 = target: T1, human NOX4 (Homo sapiens, UniProt Q9NPH5); assay: Amplex Red activity assay (cellular H2O2 formation in hNOX4 T-REx-293 cells); assay type: cell-based; conditions: tet-induced 24 h, extracellular H2O2 by Amplex Red, 60 min 25° C., geometric mean if determined several times
T1 construct: The full-length human NOX4 (NM_016931.3) transcript was cloned; expressed in transfected cells
T1 sequence (Q9NPH5 1-578): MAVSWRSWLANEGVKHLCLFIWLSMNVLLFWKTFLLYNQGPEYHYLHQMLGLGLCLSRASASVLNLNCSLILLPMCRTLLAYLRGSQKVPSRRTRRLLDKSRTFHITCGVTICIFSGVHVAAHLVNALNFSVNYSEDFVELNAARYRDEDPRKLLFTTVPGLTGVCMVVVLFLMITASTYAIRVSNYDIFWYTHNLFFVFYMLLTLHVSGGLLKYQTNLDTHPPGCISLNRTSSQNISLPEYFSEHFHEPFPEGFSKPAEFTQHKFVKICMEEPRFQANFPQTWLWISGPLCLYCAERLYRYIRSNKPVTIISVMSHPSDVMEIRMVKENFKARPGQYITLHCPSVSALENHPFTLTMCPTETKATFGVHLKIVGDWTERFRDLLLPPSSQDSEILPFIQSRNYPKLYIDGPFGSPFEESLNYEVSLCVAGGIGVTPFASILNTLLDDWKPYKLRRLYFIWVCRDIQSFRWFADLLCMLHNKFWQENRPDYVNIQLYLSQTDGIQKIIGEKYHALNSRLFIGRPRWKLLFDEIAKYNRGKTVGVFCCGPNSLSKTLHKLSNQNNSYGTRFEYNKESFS
T1 sequence (P13498 1-195 partner): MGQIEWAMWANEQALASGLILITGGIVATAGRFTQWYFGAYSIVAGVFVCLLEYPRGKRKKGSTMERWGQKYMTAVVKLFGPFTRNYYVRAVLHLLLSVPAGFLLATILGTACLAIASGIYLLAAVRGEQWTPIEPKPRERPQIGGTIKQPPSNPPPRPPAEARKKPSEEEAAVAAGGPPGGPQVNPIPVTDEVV
Method in brief: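 Tet-induced (1 μg/mL, 24 h) HEK293 T-REx cells stably expressing full-length human NOX4, 20 000 cells/well, exposed to compounds (10 concentrations, 50 μM to 100 nM; 1.25% DMSO) for 60 min at 25°C. Extracellular H2O2 detected by Amplex Red resorufin fluorescence (ex 550/em 600 nm) versus vehicle; IC50 calculated.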

[1] = target: horseradish peroxidase / H2O2 (Armoracia rusticana, UniProt P00433); assay: Amplex Red counter screen assay (cells replaced by H2O2); assay type: biochemical; conditions: counter screen: H2O2-generating cells replaced by 1562.5 nM H2O2 in 1×PBS; read-out: IC50 Control
horseradish peroxidase / H2O2, sequence (P00433 31-338): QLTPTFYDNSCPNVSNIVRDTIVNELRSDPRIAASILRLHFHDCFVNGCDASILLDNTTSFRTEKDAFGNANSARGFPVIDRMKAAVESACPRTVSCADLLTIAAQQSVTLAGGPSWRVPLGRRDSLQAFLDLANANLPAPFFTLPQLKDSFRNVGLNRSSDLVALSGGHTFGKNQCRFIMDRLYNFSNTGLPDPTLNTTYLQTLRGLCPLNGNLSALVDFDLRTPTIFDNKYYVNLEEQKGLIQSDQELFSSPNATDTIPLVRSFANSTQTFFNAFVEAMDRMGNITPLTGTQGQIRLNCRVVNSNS
Protocol: In order to identify compounds that interfere with the activity assay either by inhibiting the activity of horseradish peroxidase or by directly interacting with the formed H2O2 a counter screen assay was established. This control assay is almost identical to the described Amplex Red activity assay with the only difference that the H2O2— generating cells are replaced by 1562.5 nM H2O2 in 1×PBS.

Substance | IC50 (human NOX4) [nM] | IC50 [1] [µM]
2,3-Dihydro-benzofuran-5-carboxylic acid (2-dimethylamino-benzothiazol-5-yl)-amide [Example 86] | 2680 | > 50
2,3-Dihydro-benzofuran-5-carboxylic acid [2-(1-oxa-7-aza-spiro[3.5]non-7-yl)-benzooxazol-5-yl]-amide [Example 28] | 695 | > 50
